Reference: patent US5283331A, “2-halogeno-oxetanocin A and phosphoric ester thereof” (Nippon Kayaku Kabushiki Kaisha, priority 1990, dated 1994)
In brackets after ≈: the same amount, converted by molar mass.

How the values were obtained:
[1] = test system: cytomegalovirus (A0169 strain); experiment: Anti-cytomegalovirus activity (plaque reduction in human embryo fibroblast); assay type: cell-based; conditions: for EC50: Human betaherpesvirus 5, 240 h, plaque number, human embryo fibroblast, 10 days, 37° C., read-out: Anti-cytomegalovirus activity ED50 (50% inhibitory value)
Protocol: Anti-cytomegalovirus activity was measured in the following manner. Thus, a 35 mm dish having a single layer of human embryo fibroblast was infected with 100 PFU (Plaque Forming Units) of cytomegalovirus (A0169 strain). After adsorption for one hour, it was covered with a layer of a medium [0.5% agarose and 2% fetal calf serum] containing a varied concentration of a compound of this invention. After culturing it for 10 days at 37° C. in a 5% (v/v) carbon dioxide incubator, the number of plaques formed was measured.

[2] = test system: HIV; experiment: Anti-HIV activity in MT-4 cells (viral antigen expression, fluorescent antibody method); assay type: cell-based
Protocol: Anti-HIV activity (anti-Human Immunodeficiency Virus activity) was measured in the following manner. Thus, about 100,000 cells/ml of MT-4 cells were placed in a 24-well tray, and 100 μl of a solution containing a predetermined quantity of a compound of this invention was added thereto. After culturing it at 37° C. for 2 hours in a 5% (v/v) carbon dioxide incubator, 2.5×10^5 infection units of HIV was added and cultured for 4 days. Then, a portion of the culture fluid was applied onto a slide glass and immobilized with acetone, after which expression of the viral antigen was tested according to the fluorescent antibody method. As the primary antibody of the fluorescent antibody method, a serum of AIDS patient was used. As the secondary antibody, FITC-labelled anti-human IgG was used.
The test were conducted in a comparative manner, using oxetanocin A as a control substance for each of Experiment 1 and 2.

[3] = Stability to adenosine deaminase (residual percentage by HPLC); assay type: in vitro ADME, young calf; conditions: bovine, pH 6.8, 37° C., 5 units adenosine deaminase; for remaining at 0.5 h: 30 min; for remaining at 1 h: 60 min; for remaining at 2 h: 120 min
Protocol: (§1) Sample (0.05 ml) was dissolved into 20 ml of 0.1M phosphate buffer (pH 6.8), and 5 units of adenosine deaminase originated from young calf intestinal mucous membrane (SIGMA Product No. A-1155) was added. While keeping the resulting mixture at a constant temperature of 37° C., its 1 ml portion was sampled out at predetermined intervals. After adding 1 μmole of coformycin and 10-hold diluting the mixture with water, residual percentage of the sample was determined by reverse phase high performance liquid chromatography (column: Senshu Pak ODS-5121-N, 6.phi.×150 mm; eluent: 0.1M citrate buffer-acetonitrile-methanol (50:2:1); flow rate: 1.8 ml/min.; detection: UV detector, 254 nm).

[4] = test system: adenosine deaminase; experiment: as above; assay type: in vitro ADME, young calf; conditions: 0 min; pH 6.8, 37° C., 5 units adenosine deaminase
Protocol: as §1

[5] = test system: virus; conditions: prior art: Journal of Antibiotics 39, 1623-25 (1986), EP-A2-0182315; cited from earlier work

SMILES	activity against cytomegalovirus (in words) [1]	EC50 [1] [µg/mL]	activity against HIV (in words) [2]	remaining at 10 min [3] [%]	remaining at 0.5 h [3] [%]	remaining at 1 h [3] [%]	remaining at 2 h [3] [%]	Residual percentage (%) [4] [%]	antiviral activity (in words) [5]
Nc1nc(F)nc2c1ncn2[C@@H]1O[C@H](CO)[C@H]1CO [Compound No. 1, 2-Fluoro-oxetanocin A]	excellent activity against cytomegalovirus	0.3 (≈ 1.11 µM)	excellent activities against HIV	100	100	100	100	100	
Nc1nc(Cl)nc2c1ncn2[C@@H]1O[C@H](CO)[C@H]1CO [Compound No. 2, 2-Chloro-oxetanocin A]			excellent activities against HIV	100	100	100	100	100	
Nc1nc(F)nc2c1ncn2[C@@H]1O[C@H](COP(=O)(O)O)[C@H]1CO [Compound No. 5, 2-Fluoro-oxetanocin A 4'-phosphate]				100	100	100	100	100	
Nc1nc(Cl)nc2c1ncn2[C@@H]1O[C@H](COP(=O)(O)O)[C@H]1CO [Compound No. 6, 2-Chloro-oxetanocin A 4'-phosphate]			excellent activities against HIV	100	100	100	100	100	
Nc1ncnc2c1ncn2[C@@H]1O[C@H](CO)[C@H]1CO [Oxetanocin A]		13 (≈ 51.7 µM)		85	28	0	0	100	
Nc1ncnc2c1ncn2[C@@H]1O[C@H](CO)[C@H]1CO [Oxetanocin]									having an antiviral activity
